Key:
[1] = tested on: patients with unresectable advanced or metastatic renal cell carcinoma (RCC); assay: Same Phase 2 trial: laboratory abnormalities, Grade 3-4; assay type: in vivo, human; details: combo (head prints 10 mg+5 mg), LENVIMA 24 mg, everolimus 10 mg
Source text: Table 4 provides a summary of laboratory abnormalities observed in the patients in the RCC trial described in Example 1.

[2] = tested on: patients with unresectable advanced or metastatic renal cell carcinoma (RCC); assay: Phase 2 trial in RCC after one prior VEGF-targeted treatment: efficacy (PFS, OS, ORR), investigator assessment, RECIST 1.1; LENVIMA 18 mg+everolimus 5 mg vs LENVIMA 24 mg vs everolimus 10 mg; details: combo 18 mg+5 mg
Experimental: A multicenter, randomized, open-label, trial was conducted to determine the safety and efficacy of lenvatinib administered alone or in combination with everolimus in subjects with unresectable advanced or metastatic renal cell carcinoma (RCC). The trial consisted of a Phase 1b dose finding and a Phase 2 portion. The Phase 2 portion enrolled a total of 153 patients with unresectable advanced or metastatic RCC following one prior VEGF-targeted treatment. Patients were required, inter alia, to have histological confirmation of predominant clear cell RCC, radiographic evidence of disease progression according to Response Evaluation Criteria in Solid Tumors Version 1.1 (RECIST), one prior VEGF-targeted therapy, and Eastern Cooperative Oncology Group (ECOG) Performance Status of 0 or 1.
Patients were randomly allocated to one of 3 arms: (i) LENVIMA® (mesylate salt of lenvatinib) 18 mg+everolimus 5 mg, (ii) LENVIMA® 24 mg, or (iii) everolimus 10 mg, using a 1:1:1 ratio. Patients were stratified by hemoglobin level (≤13 g/dL vs. >13 g/dL for males and ≤11.5 g/dL vs >11.5 g/dL for females) and corrected serum calcium (≥10 mg/dL vs. <10 mg/dL).
The primary efficacy outcome measure, based on investigator assessed tumor response, was progression-free survival (PFS) of the LENVIMA® plus everolimus arm vs. the everolimus arm and of the LENVIMA® arm vs. the everolimus arm. Other efficacy outcome measures included investigator-assessed overall survival (OS) and objective response rate (ORR).
Tumor assessments were evaluated according to RECIST.

[3] = tested on: patients with unresectable advanced or metastatic renal cell carcinoma (RCC); assay: Same Phase 2 trial: adverse reactions (CTCAE grades), once daily dosing;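 further: adverse events are any unwanted sign, symptom, abnormal lab finding or disease occurring in time with treatment, whether or not drug-related, and CTCAE grade expresses their severity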
Experimental: The CTCAE provides a grading (severity) scale for each adverse event term. […] The CTCAE grade refers to the severity of the AE.
The safety data described below are derived from the trial described in Example 1, which randomized (1:1:1) patients with unresectable advanced or metastatic renal cell carcinoma (RCC) to LENVIMA® 18 mg+everolimus 5 mg (n=51), LENVIMA® 24 mg (n=52), or everolimus 10 mg (n=50) once daily.

[4] = tested on: patients with unresectable advanced or metastatic renal cell carcinoma (RCC); assay: Same Phase 2 trial: PFS and ORR by retrospective independent blinded review of scans; assay type: in vivo, human; details: combo 18 mg+5 mg; everolimus 10 mg
[5] = cited from earlier work
[6] = tested on: rats; details: rat, in vivo, po; cited from earlier work
[7] = tested on: rabbits; details: rabbit, in vivo, po; cited from earlier work
[8] = everolimus 10 mg, cutoff Jul. 31, 2015
[9] = everolimus 10 mg, cutoff Jun. 13, 2014
[10] = LENVIMA 24 mg, everolimus 10 mg
[11] = combo 18 mg+5 mg, LENVIMA 24 mg, everolimus 10 mg
[12] = combo 18 mg+5 mg, LENVIMA 24 mg

## CO[C@H]1C[C@@H]2CC[C@@H](C)[C@@](O)(O2)C(=O)C(=O)N2CCCC[C@H]2C(=O)O[C@H]([C@H](C)C[C@@H]2CC[C@@H](OCCO)[C@H](OC)C2)CC(=O)[C@H](C)/C=C(\C)[C@@H](O)[C@@H](OC)C(=O)[C@H](C)C[C@H](C)/C=C/C=C/C=C/1C [Everolimus, (1R,9S,12S,15R,16E,18R,19R,21R,23 S,24E,26E,28E,30S,32S,35R)-1,18-dihydroxy-12-{(1R)-2-[(1 S,3R,4R)-4-(2-hydroxyethoxy)-3-methoxycyclohexyl]-1-methylethyl}-19,30-dimethoxy-15,17,21,23,29,35-hexamethyl-11,36-dioxa-4-aza-tricyclo[30.3.1.0^4,9]hexatriaconta-16,24,26,28-tetraene-2,3,10,14,20-pentaone]
[1]
  Alkaline phosphatase increased, Grades 3-4: 0%
  Aspartate aminotransferase (AST) increased, Grades 3-4: 0%
  Hemoglobin decreased, Grades 3-4: 16%
  Hyperglycemia, Grades 3-4: 16%
  Hyperkalemia, Grades 3-4: 2%
  Hypocalcemia, Grades 3-4: 2%
  Hypokalemia, Grades 3-4: 2%
  Hyponatremia, Grades 3-4: 6%
  Hypophosphatemia, Grades 3-4: 6%
  Lipase increased, Grades 3-4: 12%
  Lymphocyte count decreased, Grades 3-4: 20%
  Platelet count decreased, Grades 3-4: 0%
[1]; listed as everolimus
  Aspartate aminotransferase (AST) increased, Grades 3-4: no patients
[2]; everolimus 10 mg
  Number of complete responses (%): 0 n (%)
  Number of partial responses (%): 3 (6) n (%)
  Number of progressive disease (%): 12 (24) n (%)
  Number of stable disease (%): 31 (62) n (%)
[2]; [8]
  Overall Survival (updated analysis): Number of deaths, n (%): 37 (74) n (%)
[2]; [9]
  Overall Survival: Number of deaths (%): 26 (52) n (%)
[3]; [10]
  arterial thromboembolic events, Grade 3 or greater: 4%
[3]; [11]
  Adverse reactions led to dose reductions or interruption, patients: 54%
  Arthralgia/myalgia, All Grades: 32%
  Arthralgia/myalgia, Grades 3-4: 0%
  Confusional state, All Grades: 0%
  Confusional state, Grades 3-4: 0%
  Constipation, All Grades: 18%
  Constipation, Grades 3-4: 0%
  Cough, All Grades: 30%
  Cough, Grades 3-4: 0%
  Decreased appetite, All Grades: 18%
  Decreased appetite, Grades 3-4: 0%
  Decreased weight, All Grades: 8%
  Decreased weight, Grades 3-4: 0%
  Dehydration, All Grades: 2%
  Dehydration, Grades 3-4: 0%
  Diarrhea, All Grades: 34%
  Diarrhea, Grades 3-4: 2%
  Discontinuation of treatment due to hemorrhagic events, patients: no discontinuations
  Dyspepsia, All Grades: 12%
  Dyspepsia, Grades 3-4: 0%
  Dysphonia, All Grades: 4%
  Dysphonia, Grades 3-4: 0%
  Dyspnea, All Grades: 28%
  Dyspnea, Grades 3-4: 8%
  Epistaxis, All Grades: 24%
  Epistaxis, Grades 3-4: 0%
  Events of renal impairment: 12%
  Fatigue, All Grades: 38%
  Gastrointestinal disorders and Abdominal pain, All Grades: 8%
  Gastrointestinal disorders and Abdominal pain, Grades 3-4: 0%
  Grade 3 or greater diarrhea, patients: 2%
  Grade 3 or greater renal failure or impairment, incidence: 2%
  Headache, Grades 3-4: 2%
  Hypertension, All Grades: 10%
  Hypertension, Grades 3-4: 2%
  Insomnia, All Grades: 2%
  Insomnia, Grades 3-4: 0%
  Musculoskeletal chest pain, All Grades: 4%
  Musculoskeletal chest pain, Grades 3-4: 0%
  Nausea, All Grades: 16%
  Nausea, Grades 3-4: 0%
  Oral inflammation, All Grades: 50%
  Oral inflammation, Grades 3-4: 4%
  Oral pain, All Grades: 4%
  Oral pain, Grades 3-4: 0%
  Proteinuria, All Grades: 14%
  Proteinuria, Grades 3-4 (text: Grade 3 or greater): 2%
  Pruritus, All Grades: 14%
  Pruritus, Grades 3-4: 0%
  Pyrexia, All Grades: 10%
  QT/QTc interval prolongation, patients: No reports
  Rash, All Grades: 30%
  Rash, Grades 3-4: 0%
  Renal failure events, All Grades: 2%
  Renal failure events, Grades 3-4: 2%
  Vomiting, Grades 3-4: 0%
  arterial thromboembolic events, patients: 6%
  decreased ejection fraction and cardiac failure, Grade 3: 2%
  decreased ejection fraction and cardiac failure, patients: 4%
  epistaxis, Grade 1: 20%
  gastrointestinal perforation or fistula, patients: no patients
  hemorrhagic events, Grade 3 or greater: 2%
  hemorrhagic events, patients: 28%
  hypothyroidism, patients: 2%
  patients discontinued treatment for adverse reactions: 6 (12%) n (%)
[3]; combo 18 mg+5 mg, everolimus 10 mg
  elevation of TSH level post baseline in patients with a normal TSH at baseline: none
[3]; everolimus 10 mg
  epistaxis, Grade 2: 4%
[4]
  ORR, independent blinded review: no subject had an objective response

## COc1cc2nccc(Oc3ccc(NC(=O)NC4CC4)c(Cl)c3)c2cc1C(N)=O [LENVIMA ®, 4-[3-chloro-4-(N′-cyclopropylureido)phenoxy]-7-methoxyquinoline-6-carboxamide methanesulfonate]
[1]
  Alkaline phosphatase increased, Grades 3-4: 0%
  Aspartate aminotransferase (AST) increased, Grades 3-4: 4%
  Hemoglobin decreased, Grades 3-4: 4%
  Hyperglycemia, Grades 3-4: 8%
  Hyperkalemia, Grades 3-4: 2%
  Hypokalemia, Grades 3-4: 8%
  Hyponatremia, Grades 3-4: 6%
  Hypophosphatemia, Grades 3-4: 4%
  Lipase increased, Grades 3-4: 10%
  Lymphocyte count decreased, Grades 3-4: 4%
  Platelet count decreased, Grades 3-4: 2%
[1]; listed as LENVIMA®, methanesulfonate
  Hypocalcemia, Grades 3-4: no patients
[5]; ethanol (dehydrated)
  solubility in ethanol (dehydrated): practically insoluble
[5]; water
  solubility in water: slightly soluble
[2]; everolimus 10 mg
  Duration of response, months, median (95% CI): 7.5 (3.8, NE) months
  Number of complete responses (%): 0 n (%)
  Number of partial responses (%): 14 (27) n (%)
  Number of progressive disease (%): 3 (6) n (%)
  Number of stable disease (%): 27 (52) n (%)
[2]; [8]
  Median OS in months (95% CI), updated analysis: 19.1 (13.6, 26.2) months
  Overall Survival (updated analysis): Number of deaths, n (%): 34 (65) n (%)
[2]; [9]
  Median OS in months (95% CI): 18.4 (13.3, NE) months
  Median PFS in months (95% CI): 7.4 (5.6, 10.2) months
  Overall Survival: Number of deaths (%): 26 (50) n (%)
[2]; vs everolimus 10 mg
  PFS compared with the everolimus arm (in words): improvement
[3]; [10]
  arterial thromboembolic events, Grade 3 or greater: 8%
[3]; [12]
  QT/QTc interval prolongation, Grade 3 or greater events: No Grade 3 or greater events
  fatal hemorrhage cases: one case of fatal intracranial hemorrhage
[3]; [11]
  Arthralgia/myalgia, All Grades: 56%
  Arthralgia/myalgia, Grades 3-4: 4%
  Confusional state, All Grades: 4%
  Confusional state, Grades 3-4: 2%
  Cough, All Grades: 17%
  Cough, Grades 3-4: 2%
  Decreased appetite, All Grades: 58%
  Decreased appetite, Grades 3-4: 4%
  Decreased weight, All Grades: 50%
  Decreased weight, Grades 3-4: 6%
  Dehydration, All Grades: 2%
  Dehydration, Grades 3-4: 0%
  Dysphonia, All Grades: 37%
  Dysphonia, Grades 3-4: 0%
  Dyspnea, All Grades: 25%
  Dyspnea, Grades 3-4: 2%
  Epistaxis, All Grades: 8%
  Epistaxis, Grades 3-4: 0%
  Fatigue, All Grades: 52%
  Headache, Grades 3-4: 6%
  Insomnia, All Grades: 15%
  Insomnia, Grades 3-4: 0%
  Musculoskeletal chest pain, All Grades: 15%
  Musculoskeletal chest pain, Grades 3-4: 4%
  Pruritus, All Grades: 6%
  Pruritus, Grades 3-4: 0%
  Pyrexia, All Grades: 10%
  QT/QTc interval prolongation, patients: 6%
  Rash, All Grades: 15%
  Rash, Grades 3-4: 0%
  Renal failure events, All Grades: 10%
  Renal failure events, Grades 3-4: 6%
  Vomiting, Grades 3-4: 4%

## COc1cc2nccc(Oc3ccc(NC(=O)NC4CC4)c(Cl)c3)c2cc1C(N)=O [lenvatinib, 4-(3-chloro-4(cyclopropylaminocarbonyl)aminophenoxy)-7-methoxy-6-quinolinecarboxamide]
[6]
  embryofetal toxicity findings: embryotoxicity, fetotoxicity, and teratogenicity
[7]
  embryofetal toxicity findings: embryotoxicity, fetotoxicity, and teratogenicity

Source: patent US20200375975A1, “Treatment of Renal Cell Carcinoma with Lenvatinib and Everolimus” (Eisai R&D Management Co., Ltd., priority 2016, published 2020)
